Laboratory results published in US12551495B2, “Phytoecdysones and derivatives thereof for use in treating disordered respiratory function on viral infection” (priority 2020, dated 2026).

Key:
[1] = biological target: T1, Mas receptor (Homo sapiens, UniProt P04201); conditions: Dilda et al. 2019; cited from earlier work
T1 sequence (P04201 1-325): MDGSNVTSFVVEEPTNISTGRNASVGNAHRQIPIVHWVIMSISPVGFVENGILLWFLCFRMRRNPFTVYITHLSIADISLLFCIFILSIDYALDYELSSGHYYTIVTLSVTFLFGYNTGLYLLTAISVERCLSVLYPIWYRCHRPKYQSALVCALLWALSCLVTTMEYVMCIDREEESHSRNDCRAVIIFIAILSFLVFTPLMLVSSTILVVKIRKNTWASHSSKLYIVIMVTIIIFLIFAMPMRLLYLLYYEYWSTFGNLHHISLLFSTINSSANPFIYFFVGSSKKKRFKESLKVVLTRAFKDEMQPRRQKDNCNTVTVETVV

[2] = tested on: mouse model of acute lung injury (ALI); conditions: Xia et al. 2016, Song et al. 2019; cited from earlier work
[3] = tested on: hypertensive type SH (spontaneously hypertensive) rats; assay: Mean arterial pressure by telemetry in spontaneously hypertensive rats, single oral administration; format: in vivo, rat; conditions: Enalapril 50 mg/kg
Protocol: The effects of BIO101 alone were evaluated after a single oral administration. Six SH rats were used in crossover treatments with an elimination period of a minimum of 72 hours between treatments. Prior to the treatment, the animals were equipped with telemetry instruments for measuring arterial pressure. For the experiment described in FIG. 2A the animals received the following treatments: vehicle, either BIO101 at 5 mg/kg, or BIO101 at 50 mg/kg, or Enalapril at 50 mg/kg.
The inventors tested the phytoecdysones and more particularly BIO101 on the mean arterial pressure by telemetry, in hypertensive animals after oral administration at the doses of 5 and 50 mg/kg. The study relates to hypertensive type SH (spontaneously hypertensive) rats.
BIO101 therefore has no anti-hypertensive effect.

Row | SMILES | activity on Mas receptor [1] | anti-inflammatory cytokines (IL-4, IL-10) [2] | lung injuries (histological examination) [2] | plasmatic inflammatory cytokines (TNF-α, IL-2, IL-6, IL-8) [2] | anti-hypertensive activity (mean arterial pressure) [3]
1 | CC(C)(O)CC[C@@H](O)[C@](C)(O)[C@H]1CC[C@@]2(O)C3=CC(=O)[C@@H]4C[C@@H](O)[C@@H](O)C[C@]4(C)[C@H]3CC[C@]12C [20-hydroxyecdysone] | activates | increased | reduction in lung injuries | reduced | –
2 | CCOC(=O)[C@H](CCc1ccccc1)N[C@@H](C)C(=O)N1CCC[C@H]1C(=O)O [Enalapril] | – | – | – | – | has an anti-hypertensive activity
